Experimental data taken from publication PMC10720383, “Acetylcholinesterase Inhibition in Rats and Humans Following Acute Fenitrothion Exposure Predicted by Physiologically Based Kinetic Modeling-Facilitated Quantitative In Vitro to In Vivo Extrapolation” (Environmental Science & Technology, 2023).
Like-named read-outs stand apart in the source and are kept apart here.

What was measured:
CYP450s [1] = assay: in vitro; assay type: in vitro ADME; details: both sexes, Sprague-Dawley, rat, pH 7.4, rat liver microsomes, gender-mixed
Description: (§1) In vitro incubations were performed to obtain kinetic parameters for the CYP450s-catalyzed conversion of FNT to FNO and MNP using gender-mixed rat and human liver microsomes. For the PON1-dominated detoxification of FNO to MNP, in vitro incubations were conducted with gender-mixed liver microsomes or plasma from rats and humans. Sample extraction with diisopropyl ether was performed before UPLC-PDA analysis. More details on in vitro incubations, sample extraction, UPLC-PDA analysis, and calculation of kinetic parameters are provided in the Supporting Information.
(§2) Supplementary materials and methods
Chemical and biological materials […]
(§3) Human liver microsomes (pooled from 150 donors, mixed gender) and pooled male rat liver microsomes (Sprague-Dawley) were purchased from Corning (Amsterdam, The Netherlands). […] Human plasma (pooled from 25 donors, mixed gender) and rat plasma (Sprague-Dawley, mixed gender) were ordered from BioIVT (West Sussex, UK), and corresponding total protein concentrations were determined using BCA protein assay (Supporting Information). […]

[2] = rats, oral exposure; cited from earlier work
[3] = cited from earlier work
CYP450s [4] = assay: in vitro; assay type: in vitro ADME, human; details: gender-mixed
Description: as §1, §2
Chemical and biological materials
FNT, acetylthiocholine iodide (ATC), 5,5’-dithiobis (2-nitrobenzoic acid) (DTNB), ethopropazine, tetraisopropyl pyrophosphoramide (iso-OMPA), perchloric acid (HClO4), trifluoroacetic acid (TFA), EDTA, MgCl2•6H2O, CaCl2•2H2O, NaH2PO4, Na2HPO4, Triton-X 100, Trizma® base and diisopropyl ether (DIPE) were ordered from Sigma-Aldrich (Amsterdam, The Netherlands). FNO was purchased from FUJIFILM Wako Pure Chemical Corporation (Tokyo, Japan), MNP and reduced nicotinamide adenine dinucleotide phosphate (NADPH) from Carbosynth Ltd. (Compton, UK). Acetonitrile (UPLC/MS grade), methanol (UPLC/MS grade) and ethanol (UPLC/MS grade) were ordered from Biosolve (Valkenswaard, The Netherlands). Chlorpyrifos-oxon was ordered from TRC-Canada (Toronto, Ontario, Canada). Ultrapure water was prepared using a Sartorius Arium® Pro ultrapure water system (Göttingen, Germany).
as §3, with “Netherlands). Pooled female rat liver microsomes (Sprague-Dawley) were ordered from Sigma-Aldrich (St. Louis, MO, USA).” for “Netherlands).”

With `COP(=S)(OC)Oc1ccc([N+](=O)[O-])c(C)c1` [FNT, O,O-dimethyl O-4-nitro-m-tolyl phosphorothioate] as the molecule, how does the Km (CYP450s [1]; read-out: Km, FNT to FNO (CYP450s-catalyzed)) read?
Its Km is 8.28 µM.

And the Km (CYP450s [1]; read-out: Km, FNT to MNP (CYP450s-catalyzed))?
The Km was 20.5 µM.

And the “fraction of the dose absorbed (Fa)” value [2]?
The value was 0.9.

What about the “LogP, reported data” value ([3]; not clear if experimental or in silico, ref WHO 2004) of the same molecule?
The value was 3.16.

And the “LogP, experimental data” value ([3]; ref JMPR 2003)?
The value was 3.319.

What about the Km (CYP450s [4]; both sexes, human, pH 7.4, human liver microsomes, read-out: Km, FNT to FNO (CYP450s-catalyzed)) of the same molecule?
The Km was 21.6 µM.

And the Km (CYP450s [4]; both sexes, human, pH 7.4, human liver microsomes, read-out: Km, FNT to MNP (CYP450s-catalyzed))?
Its Km is 4.08 µM.

And the Km (CYP450s [4]; human liver microsomes, read-out: Km, FNT to MNP (CYP450s-catalyzed))?
The Km was 4.08 µM.
